Experimental data as given in patent publication EP4745134A1 (Jiangsu Yahong Meditech Co., Ltd., priority 2023, dated 2025).
Where two headings read alike, the source gives them in different places.

Assays:
HCT116 MTAP KO cells = assay: Inhibitory activity against cell proliferation (CellTiter Glo, 6 days), HCT116 MTAP KO; type: cell-based; conditions: for IC50: HCT116 MTAP KO cells, 6 days, CellTiter Glo, read-out: HCT116 MTAP KO IC50; for Selectivity HCT 116-WT/ HCT116 MTAP KO: ratio of IC50 HCT116-WT / HCT116 MTAP KO
Method in brief: (§1)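 250 cells/well, McCoy's 5A + 10% FBS, o/n 37°C 5% CO2; cpd 8-pt 4-fold from 10000 nM, 6 d; CTG lum on day 7; IC50 vs DMSO.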

HCT116-WT cells = assay: Inhibitory activity against cell proliferation (CellTiter Glo, 6 days), HCT116-WT; type: cell-based; conditions: HCT116-WT cells, 6 days, CellTiter Glo, read-out: HCT116-WT IC50
Method in brief: as §1

PRMT5-MTA = PRMT5-MTA (Homo sapiens, UniProt O14744); assay: Enzymatic inhibitory activity against PRMT5-MTA (AlphaScreen); type: biochemical; conditions: read-out: IC50
Method in brief: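 PRMT5/[…] (1 nM) was preincubated for 30 min at room temperature with 1 µM […] and 2.5 µM SAM, then exposed to compound (10-point, 3-fold from 1000 nM) for 15 min at 23 °C. Histone H4 substrate (5 nM) was added and reacted for 45 min at 23 °C. Symmetric dimethyl-R3 H4 was detected by AlphaScreen and IC50 calculated.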

Chain of PRMT5-MTA (O14744 whole entry): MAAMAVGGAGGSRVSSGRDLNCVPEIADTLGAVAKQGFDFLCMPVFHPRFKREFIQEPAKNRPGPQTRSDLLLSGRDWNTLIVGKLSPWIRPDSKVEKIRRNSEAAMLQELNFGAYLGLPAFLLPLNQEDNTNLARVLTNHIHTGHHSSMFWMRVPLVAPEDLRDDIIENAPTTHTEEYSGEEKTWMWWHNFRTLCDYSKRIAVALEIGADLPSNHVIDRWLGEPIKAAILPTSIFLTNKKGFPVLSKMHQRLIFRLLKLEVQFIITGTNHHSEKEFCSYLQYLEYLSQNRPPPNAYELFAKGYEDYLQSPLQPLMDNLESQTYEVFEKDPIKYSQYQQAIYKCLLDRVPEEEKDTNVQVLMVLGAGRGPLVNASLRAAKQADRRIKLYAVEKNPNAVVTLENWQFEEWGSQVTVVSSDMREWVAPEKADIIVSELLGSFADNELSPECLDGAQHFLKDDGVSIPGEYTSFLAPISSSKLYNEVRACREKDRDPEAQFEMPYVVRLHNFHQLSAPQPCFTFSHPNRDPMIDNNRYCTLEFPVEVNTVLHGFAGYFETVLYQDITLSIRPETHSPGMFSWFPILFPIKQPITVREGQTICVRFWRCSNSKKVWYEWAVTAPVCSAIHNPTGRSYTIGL
Chain of PRMT5-MTA (Q9BQA1 whole entry partner): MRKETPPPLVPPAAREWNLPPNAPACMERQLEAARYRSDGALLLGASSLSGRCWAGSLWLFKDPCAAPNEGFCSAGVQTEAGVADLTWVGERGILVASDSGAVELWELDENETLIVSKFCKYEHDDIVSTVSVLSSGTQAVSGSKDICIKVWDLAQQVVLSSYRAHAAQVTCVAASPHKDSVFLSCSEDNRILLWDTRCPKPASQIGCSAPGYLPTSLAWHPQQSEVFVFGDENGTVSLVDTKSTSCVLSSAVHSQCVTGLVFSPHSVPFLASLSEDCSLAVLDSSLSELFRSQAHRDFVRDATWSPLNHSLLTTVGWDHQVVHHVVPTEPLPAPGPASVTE

| SMILES | IC50 (HCT116 MTAP KO cells; Homo sapiens, HCT-116, 144 h) [nM] | Selectivity HCT 116-WT/ HCT116 MTAP KO (HCT116 MTAP KO cells) | IC50 (HCT116-WT cells; 144 h) [nM] | IC50 (PRMT5-MTA) [nM] | IC50 (HCT116 MTAP KO cells) [nM] | IC50 (HCT116-WT cells) [nM] |
| --- | --- | --- | --- | --- | --- | --- |
| Cc1cc2nc(N)c3cnn(C)c3c2cc1C(=O)N1C[C@@H](C)CN1c1ncccc1F (single isomer, unassigned) [Example 464] | 17 | 64.06 | 1090 | 3.1 | – | – |
| Cc1cc2nc(N)c3cnn(C)c3c2cc1C(=O)N1C[C@H](C)CN1c1ncccc1F (single isomer, unassigned) [Example 465] | 23 | 45.35 | 1040 | 3.4 | – | – |
| CC1CN(C(=O)c2cc3c(cc2F)nc(N)c2cnn(C)c23)N(c2ncccc2F)C1 (single isomer, unassigned) [Example 466] | 13 | 50.77 | 660 | 4.4 | – | – |
| Cc1cc2cc(C(=O)N(Cc3ccc(C(F)(F)F)cn3)N(C)c3c(F)cccc3F)ccc2nc1N [Compound 116, 2-amino-N'-(2,6-difluorophenyl)-N',3-di methyl-N-((5-(trifluoromethyl)pyridin-2-yl)methyl)quinoline-6-carbohydrazide] | 78 | 37.85 | 2950 | 4.7 | – | – |
| Cc1cc2cc(C(=O)N(Cc3ccc(C(F)(F)F)cn3)N(C)c3ncc4[nH]ccc4n3)ccc2nc1N [Compound 120, 2-amino-N',3-dimethyl-N'-(5H-pyrrolo[3,2-d]pyrimidin-2-yl)-N-((5-(trifluoromethyl)pyridin-2-yl)methyl)quinoline-6-carbo hydrazide] | 10 | 17.00 | 170 | 2.5 | – | – |
| Cc1cc2cc(C(=O)N(Cc3ccc(C(F)(F)F)cn3)N(C)c3ncc4c(ccn4C)n3)ccc2nc1N [Compound 127, 2-amino-N',3-dimethyl-N'-(5-methyl-5H-pyrrolo[3,2-d]pyrimidin-2-yl)-N-((5-(trifluoromethyl)pyridin-2-yl)methyl)quinoline-6-carbohydrazide] | 115 | 16.55 | 1900 | 4.9 | – | – |
| Cc1cc2cc(C(=O)N(Cc3ccc(N4CC(F)(F)C4)cn3)N(C)c3ncccn3)ccc2nc1N [Compound 225, 2-amino-N-((5-(3,3-difluoroazetidin-1-yl)pyridin-2-yl)methyl)-N',3-dimethyl-N'-(pyrimidin-2-yl)quinoline-6-carbohydrazide] | 204 | 13.00 | 2650 | 16 | – | – |
| Cc1cc2cc(C(=O)N(Cc3ccc4ncccc4n3)N(C)c3ncccn3)ccc2nc1N [Compound 283, N-((1,5-naphthyridin-2-yl)methyl)-2-ami no-N',3-dimethyl-N'-(pyrimidin-2-yl)qui noline-6-carbohydrazide] | 244 | 11.11 | 2710 | 1.7 | – | – |
| Cc1cnc(N2CC(C)CN2C(=O)c2cc3c(cc2C)nc(N)c2cnn(C)c23)c(F)c1 (stereo not drawn) [Compound 490, (4-amino-1,7-dimethyl-1H-pyrazolo[4,3-c]quinolin-8-yl)(2-(3-fluoro-5-methylpyridin-2-yl)-4-methylpyrazolidin-1-yl)metha none] | 26 | 38.96 | 1010 | 5.1 | – | – |
| [2H]C([2H])([2H])n1ncc2c(N)nc3cc(Cl)c(C(=O)N4CC(C)CN4c4ncccc4F)cc3c21 (stereo not drawn) [Compound 508, (4-amino-7-chloro-1-(methyl-D3)-1H-pyrazolo[4,3-c]quinolin-8-yl)(2-(3-fluoropyridin-2-yl)-4-methylpyrazolidin-1-yl)meth anone] | 114 | 23.78 | 2710 | 16.6 | – | – |
| [2H]C([2H])([2H])N(c1ncccn1)N(Cc1ccc(C(F)(F)F)cn1)C(=O)c1ccc2nc(N)c(C)cc2c1 [Example 2, 2-amino-3-methyl-N'-(methyl-d3)-N'-(pyrimidin-2-yl)-N-((5-(trifluoromethyl)pyridin-2-yl)methyl)quinoline-6-carbohydrazide] | 30 | 27.33 | 820 | 2.1 | – | – |
| Cc1cc2cc(C(=O)N(Cc3ccc(C(F)(F)F)cn3)N(C)c3ncccc3F)ccc2nc1N [Example 5, 2-amino-N'-(3-fluoropyridin-2-yl)-N',3-di methyl-N-((5-(trifluoromethyl)pyridin-2-yl)methyl)quinoline-6-carbohydrazide] | 42 | 20.29 | 852 | 1.5 | – | – |
| CCN(c1ncccn1)N(Cc1ccc(C(F)(F)F)cn1)C(=O)c1ccc2nc(N)c(C)cc2c1 [Example 6, 2-amino-N'-ethyl-3-methyl-N'-(pyrimidin-2-yl)-N-((5-(trifluoromethyl)pyridin-2-yl)methyl)quinoline-6-carbohydrazide] | 95 | 14.55 | 1380 | 1.5 | – | – |
| CN(c1ccccc1)N(Cc1ccc(C(F)(F)F)cn1)C(=O)c1ccc2nc(N)c3cnn(C)c3c2c1 [Example 15, 4-amino-N',1-dimethyl-N'-phenyl-N-((5-(trifluoromethyl)pyridin-2-yl)methyl)-1H-pyrazolo[4,3-c]quinoline-8-carbohydrazide] | – | 18.27 | – | 3.7 | 26 | 475 |
| Cc1cc2cc(C(=O)N(Cc3ccc(C(F)(F)F)cn3)n3ccc4cccnc43)ccc2nc1N [Example 21, 2-amino-3-methyl-N-(1H-pyrrolo[2,3-b]pyridin-1-yl)-N-((5-(trifluoromethyl)pyridin-2-yl)methyl)quinoline-6-carboxamide] | 85 | 27.53 | 2340 | 1.9 | – | – |
| Cc1cc2cc(C(=O)N(Cc3ccc(C(F)(F)F)cn3)N3CCc4cccnc43)ccc2nc1N [Example 22, 2-amino-N-(2,3-dihydro-1H-pyrrolo[2,3-b]pyridin-1-yl)-3-methyl-N-((5-(trifluoromethy 1)pyridin-2-yl)methyl)quinoline-6-carboxamide] | 129 | 17.78 | 2290 | 4.3 | – | – |
| CN(c1ncccn1)N(Cc1ccc(C(F)(F)F)cn1)C(=O)c1ccc2nc(N)c(C3CC3)cc2c1 [Example 25, 2-amino-3-cyclopropyl-N'-methyl-N'-(pyrimidin-2-yl)-N-((5-(trifluoromethyl)pyridin-2-yl)methyl)quinoline-6-carbohydrazide] | 110 | 25.64 | 2820 | 2 | – | – |
| CC(C)c1cc2cc(C(=O)N(Cc3ccc(C(F)(F)F)cn3)N(C)c3ncccn3)ccc2nc1N [Example 26, 2-amino-3-isopropyl-N'-methyl-N'-(pyrimidin-2-yl)-N-((5-(trifluoromethyl)pyridin-2-yl)methyl)quinoline-6-carbohydrazide] | 444 | 20.73 | 9200 | 2.4 | – | – |
| Cc1cc2nc(N)c3cnn(C)c3c2cc1C(=O)N1CCCN1c1ncc(C2CCN(C)CC2)cc1F [Example 485, (4-amino-1,7-dimethyl-1H-pyrazolo[4,3-c]quinolin-8-yl)(2-(3-fluoro-5-(1-methylpiperid-4-yl)pyridin-2-yl)pyrazolidin-1-yl)methanone] | 415 | 11.64 | 4830 | – | – | – |
